Data: EP4417602A1, “SUBSTITUTED PYRAZOLE CARBOXAMIDES, SALTS THEREOF AND THEIR USE AS HERBICIDALLY ACTIVE SUBSTANCES” (Bayer AG, priority 2023, dated 2024)

Assays:
[1] = system: AMARE; test: A. Herbicidal pre-emergence action on harmful plants (Tables A); type: in vivo, Amaranthus retroflexus
Method in brief: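 Greenhouse pre-emergence test: compound applied to the soil surface at 1280 g/ha or below, and herbicidal effect rated visually at ca. 3 weeks on a 0–100% scale against untreated plants.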

[2] = system: ALOMY; test: B. Herbicidal post-emergence action on harmful plants (Tables B); type: in vivo, Alopecurus myosuroides
Protocol: Seeds of mono- and dicotyledonous weed plants were placed in plastic pots in sandy loam soil (doubly sown with in each case one species of mono- or dicotyledonous weed plants per pot), covered with soil and cultivated in a greenhouse under controlled growth conditions. 2 to 3 weeks after sowing, the test plants were treated at the one-leaf stage. The compounds of the invention, formulated in the form of wettable powders (WP) or as emulsion concentrates (EC), were applied onto the green parts of the plants as aqueous suspension or emulsion with addition of 0.5% additive at a water application rate of 600 liters per hectare (converted). After the test plants had been kept in the greenhouse under optimum growth conditions for about 3 weeks, the activity of the preparations was rated visually in comparison to untreated controls. For example, 100% activity = the plants have died, 0% activity = like control plants. Tables B1 to B12, below, show the effects of selected compounds of the general formula (I) according to table 1 on various harmful plants and an application rate corresponding to 1280 g/ha or below obtained by the experimental procedure mentioned above. Table B1a: post-emergence activity at 1280g/ha against ABUTH in %

[3] = system: VERPE; test: C. Herbicidal pre-emergence action, weed and crop plants (Tables C); type: in vivo, Veronica persica; conditions: application rate 320 g/ha; Table C11
Excerpt: Seeds of mono- and dicotyledonous weed plants and crop plants were sown, in plastic or organic planting pots, in sandy loam and covered with soil. The compounds according to the invention, formulated in the form of wettable powders (WP) or as emulsifiable concentrates (EC), were applied to the surface of the covering soil as aqueous suspension or emulsion, with the addition of 0.5% of an additive, at an application rate of 6001 of water/ha (converted). Following treatment, the pots were placed in a greenhouse and kept under optimum growth conditions for the test plants. The visual grading of the damage to the test plants was carried out after ca. 3 weeks in comparison to untreated controls (herbicidal effect in percent (%): 100% effect = plants have died off, 0% effect = as control plants). Tables C1 to C12 below show the effects of selected compounds of the general formula (I) according to table 1 on various harmful plants and an application rate corresponding to 320 g/ha or below obtained by the experimental procedure mentioned above. Table C1: pre-emergence activity at 320g/ha against KCHSC in %

[4] = system: ALOMY; test: E. Herbicidal post-emergence action, weed and crop plants (Tables E); type: in vivo, Alopecurus myosuroides; conditions: application rate 320 g/ha, visual assessment after ca. 3 weeks
Excerpt: (§1) Seeds of mono- and dicotyledonous weed plants and crop plants were sown, in plastic or organic planting pots, in sandy loam, covered with soil and grown in a greenhouse under controlled growth conditions. 2 to 3 weeks after sowing, the test plants were sprayed in the single-leaf stage. The compounds according to the invention, formulated in form of wettable powders (WP) or as emulsifiable concentrates (EC), were sprayed onto the green plant parts as aqueous suspension or emulsion, with the addition of 0.5% of an additive, at an application rate of 6001 of water/ha (converted). The test plants were placed in the greenhouse for ca. 3 weeks under optimum growth conditions, and then the effect of the preparations was assessed visually in comparison with untreated controls (herbicidal effect in percent (%): 100% effect = plants have died off, 0% effect = as control plants). Tables E1 to E7 below show the effects of selected compounds of the general formula (I) according to table 1 on various harmful plants and an application rate corresponding to 320 g/ha or below obtained by the experimental procedure mentioned above. Table E1: post-emergence activity at 320g/ha against ALOMY in %

[5] = system: ORYZA; test: F. Post-emergence effects on crop plants (Tables F); type: in vivo, Oryza sativa; conditions: crop plant
Excerpt: as §1, with “F1” for “E1”, “F5” for “E7”, “crop” for “harmful”, “[…]:” for “E1:”, “ZEAMX” for “ALOMY”

[6] = system: TRZAS; test: D. Pre-emergence effects on crop plants (Tables D); type: in vivo, Triticum aestivum; conditions: crop plant
Excerpt: Seeds of mono- and dicotyledonous weed plants and crop plants were sown, in plastic or organic planting pots, in sandy loam and covered with soil. The compounds according to the invention, formulated in the form of wettable powders (WP) or as emulsifiable concentrates (EC), were applied to the surface of the covering soil as aqueous suspension or emulsion, with the addition of 0.5% of an additive, at an application rate of 6001 of water/ha (converted).
Following treatment, the pots were placed in a greenhouse and kept under optimum growth conditions for the test plants. The visual grading of the damage to the test plants was carried out after ca. 3 weeks in comparison to untreated controls (herbicidal effect in percent (%): 100% effect = plants have died off, 0% effect = as control plants).
Tables D1 to D5 below show the effects of various compounds of the general formula (I) according to Table 1 on various crop plants and an application rate corresponding to 320 g/ha or below obtained by the experimental procedure mentioned above in Biological Examples, Section C. Table D1a: pre-emergence activity at 320g/ha against ZEAMX in %

[7] = application rate 1280 g/ha, visual grading after ca. 3 weeks vs untreated controls, 100% = plants have died off, 0% = as control plants
[8] = application rate 1280 g/ha, Table B9a
[9] = application rate 320 g/ha, Table A8b
[10] = application rate 80 g/ha, Table D2b
[11] = application rate 320 g/ha, Table B9b

pre-emergence activity against TRZAS [6, 10] [%] | Structure (SMILES) | pre-emergence activity against AMARE [1, 7] [%] | post-emergence activity against ALOMY [2, 8] [%] | pre-emergence activity against VERPE [3] [%] | post-emergence activity against ALOMY in % [4] [%] | post-emergence activity against ORYZA in % ([5]; application rate 80 g/ha) [%] | also measured
– | C=C(c1ccccc1F)C1CCCN1C(=O)c1cn(C)nc1COC (racemic) [Example I-023] | 90 | – | – | – | – | –
– | COCc1c(C(=O)N2CCCC2Cc2ccccc2Cl)cnn1C (racemic) [Example I-170] | – | 90 | 80 | 80 | 0 | –
– | COCc1c(C(=O)N2CCCC2Cc2ccccc2F)cnn1C (single isomer, unassigned) [Example I-157] | 90 | – | 80 | 80 | 10 | pre-emergence activity against AMARE [1, 9]: 90%
10 | Cn1cc(C(=O)N2CCCC2Cc2ccc(F)cc2F)c(COc2ccccc2)n1 (racemic) [Example I-008] | – | 90 | – | – | 0 | post-emergence activity against ORYZA in % ([5]; application rate 320 g/ha): 0%
0 | Cn1cc(C(=O)N2CCCC2Cc2ccccc2F)c(COc2ccccc2)n1 (racemic) [Example I-006] | – | 90 | – | 90 | 0 | post-emergence activity against ALOMY [2, 11]: 90%; pre-emergence activity against TRZAS ([6]; application rate 320 g/ha, Table D2a): 20%; post-emergence activity against ORYZA in % ([5]; application rate 320 g/ha): 0%
– | COCc1nn(C)cc1C(=O)N1CCCC1Cc1ccccc1F (single isomer, unassigned) [Example I-003] | 90 | 100 | 80 | 80 | 0 | pre-emergence activity against AMARE [1, 9]: 90%; post-emergence activity against ALOMY ([2]; application rate 80 g/ha, Table B9c): 100%; post-emergence activity against ALOMY [2, 11]: 100%
0 | COCc1nn2c(c1C(=O)N1CCCC1Cc1ccccc1F)CCC2 (racemic) [Example I-022] | – | – | – | – | – | –
– | COCc1nn(C)cc1C(=O)N1CCCC1C(O)c1ccccc1F (single isomer, unassigned) [Example I-053] | – | – | 80 | – | – | –
– | CNC(=O)n1cc(C(=O)N2CCCC2Cc2ccccc2F)c(COC)n1 (racemic) [Example I-051] | – | – | – | 80 | – | –
